Key:
[1] = test system: human normal mammary epithelial cells (HMEC); assay: Cytotoxicity test (Alamar Blue cell viability); assay type: cell-based; details: treated 2 days, different concentrations, FIG. 1
Protocol: Cells were plated (1×10^4 cells in mammary epithelial growth medium/well) in quintuplicate and octuplicate for samples and control, respectively, in 96-well microplates, and allowed to adhere overnight.

[2] = biological target: proteinase K (Parengyodontium album, UniProt P06873); assay: Proteolysis assessment (FITC-BSA fluorescence with proteinase K); details: proteinase K 0.05 mg/ml, over time; FIG. 3
Chain of proteinase K (P06873 106-384): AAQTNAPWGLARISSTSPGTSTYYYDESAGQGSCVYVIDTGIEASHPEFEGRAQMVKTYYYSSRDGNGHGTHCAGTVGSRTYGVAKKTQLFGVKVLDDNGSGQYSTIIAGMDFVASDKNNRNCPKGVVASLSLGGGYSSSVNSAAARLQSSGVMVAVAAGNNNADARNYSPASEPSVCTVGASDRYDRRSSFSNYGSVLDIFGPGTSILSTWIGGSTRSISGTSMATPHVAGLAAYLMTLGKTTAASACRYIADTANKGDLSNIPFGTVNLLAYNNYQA
Protocol: Proteolysis Assessment: Protein degradation was determined by monitoring the fluorescence intensity increment in FITC-BSA when samples were subjected to proteinase K (0.05 mg/mI), using a fluorescence spectrophotometer (Hitachi, Japan, λex=490 nm and λem=530 nm). All measurements were run in triplicate.

[3] = test system: SKBR-3 (HER2-overexpressing human breast cancer cell line); assay: Cancer cell proliferation assessment (Alamar Blue); assay type: cell-based; details: SKBR-3 cells; Herceptin 0.5 mg/ml; FIG. 4
Protocol: Cancer Cell Proliferation Assessment: SKBR-3 cells (ATCC, HTB3O, USA) were plated (1×10^4 cells in McCoy's 5 A medium/well) in quintuplicate and octuplicate for samples and control, respectively, in 96-well microplates and allowed to adhere overnight. […] At the time points indicated, the culture media were replaced by the phenol red-free media containing 10% of Alamar Blue. Cell proliferation was determined from the reduction in dye absorbance at 570 and 600 nm after 4 h of incubation.

Substance: (−)-epigallocatechin gallate [EGCG]
- cytotoxicity [1]: low cytotoxicity

Substance: free FITC-BSA: fluorescence-labeled protein (FITC-BSA)
- fluorescence intensity of FITC-BSA (protein degradation) [2]: greatly increased with time

Substance: oligomeric (−)-epigallocatechin-3-O-gallate [OEGCG]
- inhibition of cell growth [3]: inhibited

— patent publication US9248200B2, “Method of delivering an anti-cancer agent to a cell” (Agency for Science, Technology and Research, priority 2007, dated 2016)
